{
  "source": "ChEMBL document CHEMBL5376002",
  "about": "“A Hybrid Antimicrobial Peptide Targeting Staphylococcus aureus with a Dual Function of Inhibiting Quorum Sensing Signaling and an Antibacterial Effect” (J Med Chem, 2023)",
  "key": {"[1]": {"test_system": "Staphylococcus epidermidis", "assay": "Antibacterial activity against Staphylococcus epidermidis ATCC 12228 assessed as inhibition of bacterial growth incubated for 18 to 24 hrs", "assay_type": "functional", "details": "time 18-24 hrs"}, "[2]": {"test_system": "Staphylococcus saprophyticus", "assay": "Bactericidal activity against Staphylococcus saprophyticus ATCC BAA-750 assessed as inhibition of bacterial growth incubated for 18 to 24 hrs", "assay_type": "functional", "details": "time 18-24 hrs"}, "Streptococcus mutans": {"test_system": "Streptococcus mutans", "assay": "Bactericidal activity against Streptococcus mutans ATCC 25175 assessed as inhibition of bacterial growth incubated for 18 to 24 hrs", "assay_type": "functional", "details": "time 18-24 hrs"}, "Homo sapiens [3]": {"organism": "Homo sapiens", "assay": "Binding affinity to AgrC-I extra-loop-I (unknown origin) assessed as gibbs free energy change incubated for 10 mins by isothermal titration calorimetry analysis"}, "Homo sapiens [4]": {"organism": "Homo sapiens", "assay": "Binding affinity to AgrC-I extra-loop-III (unknown origin) assessed as gibbs free energy change incubated for 10 mins by isothermal titration calorimetry analysis"}, "Homo sapiens [5]": {"organism": "Homo sapiens", "assay": "Binding affinity to AgrC-I extra-loop-I (unknown origin) assessed as change in entropy incubated for 10 mins by isothermal titration calorimetry analysis"}, "[6]": {"assay": "Inhibition of quorum sensing system in Staphylococcus saprophyticus ATCC BAA-750 assessed as downregulation of RNAIII expression level at 0.78 uM incubated for 24 hrs by qRT-PCR analysis"}, "Staphylococcus aureus [7]": {"test_system": "Staphylococcus aureus", "assay": "Antivirulence activity against Staphylococcus aureus assessed as downregulation of hla expression level at 1 to 100 uM incubated for 24 hrs by qRT-PCR analysis", "assay_type": "functional, organism-based", "details": "dose 1-100 µM"}, "Staphylococcus aureus [8]": {"test_system": "Staphylococcus aureus", "assay": "Antivirulence activity against Staphylococcus aureus assessed as downregulation of psm-alpha expression level at 1 to 100 uM incubated for 24 hrs by qRT-PCR analysis", "assay_type": "functional, organism-based", "details": "dose 1-100 µM"}, "Staphylococcus aureus [9]": {"test_system": "Staphylococcus aureus", "assay": "Antibacterial activity against Staphylococcus aureus assessed as reduction in bacterial growth at 6.25 uM measured at 20 mins by time kill assay", "assay_type": "functional, organism-based"}, "[10]": {"test_system": "Staphylococcus epidermidis", "assay": "Antibacterial activity against Staphylococcus epidermidis assessed as reduction in bacterial growth at 6.25 uM measured at 20 mins by time kill assay", "assay_type": "functional, organism-based"}, "Cell membrane": {"test_system": "Cell membrane", "assay": "Induction of cell membrane damage in Staphylococcus aureus ATCC 6538p assessed as increase in nucleic acid leakage measured up to 30 mins by UV-spectrophotometer analysis", "assay_type": "subcellular"}},
  "note": "Activity calls are given as the source filed them. No cut-off for these calls is given here. Numbered stars: 1 amine (or outer) side, 2 acyl side, 3 side chain; on linkers, the order of the positions; unused ones are H or OH. Bridge positions count the residues as written; N and C are the ends. Square brackets hold non-standard residues; d marks the D form. Peptide text beside a SMILES is read from it. I, II: the chains in the order shown. X1 = O=C1CC([*:2])C(=O)N1CCCCCC(=O)[*:1]; Dab = NCC[C@H](N)C(=O)O",
  "data": [
    {"compound": "CC[C@H](C)[C@H](NC(=O)CNC(=O)CNC(=O)[C@@H](N)CSC1CC(=O)N(CCCCCC(=O)NCC(=O)N[C@H](C(=O)N[C@@H](CCCCN)C(=O)N[C@@H](CC(N)=O)C(=O)N[C@@H](CC(C)C)C(=O)N[C@@H](Cc2c[nH]c3ccccc23)C(=O)N[C@@H](CCCCN)C(=O)N[C@@H](CCCCN)C(=O)N[C@@H](CCSC)C(=O)N[C@H](C(=O)N[C@@H](CCCCN)C(=O)N[C@@H](CC(C)C)C(=O)N[C@@H](Cc2c[nH]c3ccccc23)C(=O)N[C@@H](Cc2ccc(O)cc2)C(=O)O)[C@@H](C)CC)[C@@H](C)CC)C1=O)C(=O)N[C@@H](CC(N)=O)C(=O)N[C@H]1CCNC(=O)[C@H](CC(C)C)NC(=O)[C@H](CC(C)C)NC(=O)[C@H](Cc2ccccc2)NC(=O)[C@H](C)NC1=O", "note": "(some centres not stated) (I: GIKNLWKKMIKLWY-OH / II: H-CGGIN[Dab]AFLL; linker I:N-II:1 via X1; lactam II:6-II:C)", "values": [
      {"measurement": "MIC", "setting": "[1]", "value": 1.56, "unit": "µM"},
      {"measurement": "MBC", "setting": "[2]", "value": 3.13, "unit": "µM"},
      {"measurement": "MBC", "setting": "Streptococcus mutans", "value": 3.13, "unit": "µM"},
      {"measurement": "deltaG", "setting": "Homo sapiens [3]", "value": -16.4, "unit": "kcal/mol"},
      {"measurement": "deltaG", "setting": "Homo sapiens [4]", "value": -16.4, "unit": "kcal/mol"},
      {"measurement": "-TdeltaS", "setting": "Homo sapiens [5]", "value": -11.7, "unit": "kcal/mol"},
      {"measurement": "inhibition", "setting": "[6]", "value": "inactive"},
      {"measurement": "Activity", "setting": "Staphylococcus aureus [7]", "value": "Active"},
      {"measurement": "Activity", "setting": "Staphylococcus aureus [8]", "value": "Active"},
      {"measurement": "Activity", "setting": "Staphylococcus aureus [9]", "value": "Active"},
      {"measurement": "Activity", "setting": "[10]", "value": "inactive"},
      {"measurement": "Activity", "setting": "Cell membrane", "value": "Active"}
    ]}
  ]
}
